Measurements reported in patent US9822157B2 (priority 2013, dated 2017).
Like-named read-outs stand apart in the source and are kept apart here. * marks the point of attachment. Palmitoyl = CCCCCCCCCCCCCCCC(=O)*

Target: T1, human ferroportin (Homo sapiens, UniProt Q9NP59)
T1 sequence (Q9NP59 1-571): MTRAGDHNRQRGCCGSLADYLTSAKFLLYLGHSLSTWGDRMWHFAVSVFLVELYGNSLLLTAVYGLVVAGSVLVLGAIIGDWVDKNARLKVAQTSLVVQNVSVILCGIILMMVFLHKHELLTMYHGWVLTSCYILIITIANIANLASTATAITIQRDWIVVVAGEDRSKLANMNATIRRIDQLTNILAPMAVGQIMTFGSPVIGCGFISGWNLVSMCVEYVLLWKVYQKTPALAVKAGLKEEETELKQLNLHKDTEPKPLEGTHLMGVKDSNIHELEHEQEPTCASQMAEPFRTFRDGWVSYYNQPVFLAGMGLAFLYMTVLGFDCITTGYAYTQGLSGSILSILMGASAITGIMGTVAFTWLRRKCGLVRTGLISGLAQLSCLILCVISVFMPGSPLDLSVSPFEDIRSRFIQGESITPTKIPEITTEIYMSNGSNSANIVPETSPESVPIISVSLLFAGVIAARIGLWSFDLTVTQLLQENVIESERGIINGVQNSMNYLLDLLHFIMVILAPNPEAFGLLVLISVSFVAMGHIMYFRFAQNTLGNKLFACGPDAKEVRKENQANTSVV
Type: cell-based
Conditions: for % Activity At 1 uM: at 1 uM peptide, monomers and disulphide-linked dimers
Description: The cDNA encoding the human ferroportin (SLC40A1) was cloned from a cDNA clone from Origene (NM_014585). The DNA encoding the ferroportin was amplified by PCR using primers also encoding terminal restriction sites for subcloning, but without the termination codon. The ferroportin receptor was subcloned into a mammalian GFP expression vector containing a neomycin (G418) resistance marker in such that the reading frame of the ferroportin was fused in frame with the GFP protein. The fidelity of the DNA encoding the protein was confirmed by DNA sequencing. HEK293 cells were used for transfection of the ferroportin-GFP receptor expression plasmid. The cells were grown according to standard protocol in growth medium and transfected with the plasmids using Lipofectamine (manufacturer's protocol, Invitrogen). […] The cells were propagated and frozen in aliquots.
A retro inverse peptide is a peptide with a reversed sequence in all D amino acids. […] The EC50 of these reference compounds for ferroportin degradation was determined according to the activity assay described above.

[1] = read-out: EC50 (nM) (n = 3), in vitro activity as in Example 2, peptide monomers and dimers dimerized through a single disulphide linkage, n = 3
[2] = Hepcidin analog peptides, read-out: Potency EC50
[3] = read-out: EC50 (nM) (n > 3), alanine scan of Compound 18
[4] = read-out: EC50 (n > 3), alanine scan of Compound 1
[5] = read-out: EC50 (nM) (n > 3), alanine scan of Compound 1
[6] = cysteine replacement scan of Mini-Hepcidin derivatives
[7] = read-out: EC50 (n = 3), cells printed in μM, in vitro activity as in Example 2, peptide monomers and dimers dimerized through a single disulphide linkage, n = 3

Isovaleric acid-DTHFPCIKF-NH2 [Compound 291]
% Activity At 1 uM: 100%

Hy-LTHFPCIIF-NH2 [Compound 299]
% Activity At 1 uM: 64%
EC50 [1]: > 300 nM

H-DTHFPICIFAPRSKGWVCM-NH2 (cysteine pairing not given here) [Compound 22]
EC50 [2]: 9430 nM
EC50 [3]: 9430 nM

H-DTHFPICIAGPRSKGWVCM-NH2 (cysteine pairing not given here) [Compound 67]
EC50 [2]: 2470 nM
EC50 [3]: 2470 nM

H-DTHFPICIFGPHRSKGWVCM-NH2 (cysteine pairing not given here) [Compound 27]
EC50 [2]: 149 nM

H-DTHAPCIIF-NH2 [Compound 282]
Potency EC50 (nM) (Hepcidin analog peptides): Inactive
EC50 (nM) (n > 3) (alanine scan of Compound 1): Not active

H-DTHFPCIEF-NH2 [Compound 287]
EC50 [2]: > 1000 nM

H-THFPCIIFGPRSKGWVCK-NH2 (cysteine pairing not given here) [Compound 97]
Potency EC50 (nM) (Hepcidin analog peptides): Inactive

H-DTHFPCIIA-NH2 [Compound 278]
EC50 [2]: > 1000 nM
EC50 [4]: > 1000 nM

Isovaleric acid-DTHFPCIIF-NH2 [Compound 288]
% Activity At 1 uM: 100%

H-DTHFPCRRFGPRSKGWVC-NH2 (cysteine pairing not given here) [Compound 70]
Potency EC50 (nM) (Hepcidin analog peptides): Inactive

H-DTHFPICIFGPRAKGWVCM-NH2 (cysteine pairing not given here) [Compound 28]
EC50 [2]: 88 nM

(Isovaleric acid-DTHFPCIKF-NH2)2 [Compound 326]
% Activity At 1 uM: 100%

H-DTHAPICIFGPRSKGWVCM-NH2 (cysteine pairing not given here) [Compound 38]
EC50 [2]: 254 nM
EC50 [3]: 254 nM

Isovaleric acid-DTHFPAIIF-NH2 [Compound 289]
Potency EC50 (nM) (Hepcidin analog peptides): Inactive

H-DTHFPCIVF-NH2 [Compound 307]
% Activity At 1 uM: 75%
EC50 [1]: > 300 nM

H-DTHFKCIIFGPRSKGWVCK-NH2 (cysteine pairing not given here) [Compound 131]
Potency EC50 (nM) (Hepcidin analog peptides): Inactive

H-DTAFPCIIF-NH2 [Compound 283]
EC50 [2]: 739 nM
EC50 [5]: 739 nM

H-DTHFGCIIFGPRSKGWVCK-NH2 (cysteine pairing not given here) [Compound 123]
Potency EC50 (nM) (Hepcidin analog peptides): Inactive

H-DTHICIAIF-NH2 [Compound 276]
Potency EC50 (nM) (Hepcidin analog peptides): Inactive
EC50 (nM) (n > 3) [6]: Not active

H-DTHFPIAIICI-NH2 [Compound 273]
Potency EC50 (nM) (Hepcidin analog peptides): Inactive
EC50 (nM) (n > 3) [6]: Not active

H-DTHFPCIIFGPRSRGWRCK-NH2 (cysteine pairing not given here) [Compound 80]
EC50 [2]: > 1000 nM

H-DTHFPCISFGPRSKGWVCK-NH2 (cysteine pairing not given here) [Compound 101]
EC50 [2]: > 1000 nM

H-THFPCIIFGPRSKGWVCM-NH2 (cysteine pairing not given here) [Compound 132]
EC50 [2]: > 1000 nM

Palmitoyl-DTHFPCIKFGPRSKGWVCK-NH2 (cysteine pairing not given here) [Compound 216]
EC50 [2]: > 1000 nM

Isovaleric acid-THFPCIIFGPRSKGWVCK-NH2 [Compound 98]
Potency EC50 (nM) (Hepcidin analog peptides): Inactive

H-HFPCIIFGPRSKGWVCK-NH2 (cysteine pairing not given here) [Compound 99]
Potency EC50 (nM) (Hepcidin analog peptides): Inactive

H-DTHCPIAIF-NH2 [Compound 277]
Potency EC50 (nM) (Hepcidin analog peptides): Inactive
EC50 (nM) (n > 3) [6]: Not active

H-DTHFPIAIFGPRSKGWVAM-NH2 [Compound 69]
Potency EC50 (nM) (Hepcidin analog peptides): Inactive
EC50 (nM) (n > 3) (alanine scan of Compound 18): Inactive

H-DTHFPCAIF-NH2 [Compound 279]
EC50 [2]: > 1000 nM
EC50 [4]: > 1000 nM

H-DTHFPCIIFK-NH2 [Compound 55]
EC50 [2]: 419 nM

Isovaleric acid-DTHAPCIKFEPRSKGWECK-NH2 [Compound 243]
Potency EC50 (nM) (Hepcidin analog peptides): Inactive

Isovaleric acid-DTHFPSIIF-NH2 [Compound 290]
Potency EC50 (nM) (Hepcidin analog peptides): Inactive

H-DTHFPCIRFGPRSRGWRCK-NH2 (cysteine pairing not given here) [Compound 82]
EC50 [2]: > 1000 nM

H-DTHFPCIF-NH2 [Compound 293]
% Activity At 1 uM: 52%

H-DTHFPCIAF-NH2 [Compound 51]
EC50 [2]: 382 nM
EC50 [5]: 382 nM

H-DTHFPCISFGPRSKGWVCM-NH2 (cysteine pairing not given here) [Compound 135]
EC50 [2]: 545 nM

H-DTHFPCIIFGPRSKGWVCM-NH2 (cysteine pairing not given here) [Compound 21]
EC50 [2]: 46 nM

H-DTHFPIAIFAAGICI-NH2 [Compound 269]
Potency EC50 (nM) (Hepcidin analog peptides): Inactive
EC50 (nM) (n > 3) [6]: Not active

H-DTAFPICIFGPRSKGWVCM-NH2 (cysteine pairing not given here) [Compound 60]
EC50 [2]: 498 nM
EC50 [3]: 498 nM

H-DTHFPCIKFGPRSKGWVCM-NH2 (cysteine pairing not given here) [Compound 136]
EC50 [2]: 669 nM

H-DTHFPCILK-NH2 [Compound 309]
% Activity At 1 uM: 55%
EC50 [1]: > 300 nM

H-VDTHFPCIKFGPRSKGWVCK-NH2 (cysteine pairing not given here) [Compound 164]
EC50 [2]: 146 nM

H-HFPCIIFGPRSKGWVCM-NH2 (cysteine pairing not given here) [Compound 133]
EC50 [2]: > 1000 nM

H-DTHFPICIFGPRAKGWVCM-NH2 (cysteine pairing not given here) [Compound 16]
EC50 [2]: 88 nM
EC50 [3]: 88 nM

Hy-DTHF-[β-Ala]-CIIFGPRSKGWVCK-NH2 [Compound 129]
Potency EC50 (nM) (Hepcidin analog peptides): Inactive

H-DTHFPCIEK-NH2 [Compound 310]
% Activity At 1 uM: 0%
EC50 [7]: > 1000 nM

H-DTHFPIAIFICI-NH2 [Compound 272]
Potency EC50 (nM) (Hepcidin analog peptides): Inactive
EC50 (nM) (n > 3) [6]: Not active

H-ATHFPICIFGPRSKGWVCM-NH2 (cysteine pairing not given here) [Compound 33]
EC50 [2]: 184 nM
EC50 [3]: 184 nM

H-DTHFPIAICI-NH2 [Compound 274]
Potency EC50 (nM) (Hepcidin analog peptides): Inactive
EC50 (nM) (n > 3) [6]: Not active

Hy-DTHF-[Sarc]-CIIFGPRSKGWVCK-NH2 [Compound 127]
Potency EC50 (nM) (Hepcidin analog peptides): Inactive

H-DTHFPIICI-NH2 [Compound 275]
Potency EC50 (nM) (Hepcidin analog peptides): Inactive
EC50 (nM) (n > 3) [6]: Not active

H-DTHFAICIFGPRSKGWVCM-NH2 (cysteine pairing not given here) [Compound 26]
EC50 [2]: 147 nM
EC50 [3]: 147 nM

Isovaleric acid-HFPCIIFGPRSKGWVCK-NH2 [Compound 100]
Potency EC50 (nM) (Hepcidin analog peptides): Inactive

Hy-DTHFPCIIF-NH2 [Compound 1]
% Activity At 1 uM: 92%

H-DTHFPIAIFAAICI-NH2 [Compound 270]
Potency EC50 (nM) (Hepcidin analog peptides): Inactive
EC50 (nM) (n > 3) [6]: Not active

H-DTHFPICIFGPASKGWVCM-NH2 (cysteine pairing not given here) [Compound 34]
EC50 [2]: 206 nM
EC50 [3]: 206 nM

H-DTHFPCILF-NH2 [Compound 308]
% Activity At 1 uM: 89%
EC50 [1]: > 300 nM

H-EDTHFPCIIFGPRSKGWVCM-NH2 (cysteine pairing not given here) [Compound 137]
EC50 [2]: 873 nM

H-DTHFPCIKFF-NH2 [Compound 297]
% Activity At 1 uM: 64%
EC50 [1]: > 300 nM

H-DTHFPCIIK-NH2 [Compound 304]
% Activity At 1 uM: 55%
EC50 [7]: > 1000 nM

H-DTHFPCIIFGPRSRGVCK-NH2 (cysteine pairing not given here) [Compound 84]
EC50 [2]: > 1000 nM

H-DTHFPIAIFAICI-NH2 [Compound 271]
Potency EC50 (nM) (Hepcidin analog peptides): Inactive
EC50 (nM) (n > 3) [6]: Not active

H-DTHFPCIRFGPRSRGWVCK-NH2 (cysteine pairing not given here) [Compound 81]
EC50 [2]: > 1000 nM

H-DTKFPCIIF-NH2 [Compound 302]
% Activity At 1 uM: 60%
EC50 [7]: > 1000 nM

H-DTHFRCIIFGPRSKGWVCK-NH2 (cysteine pairing not given here) [Compound 125]
Potency EC50 (nM) (Hepcidin analog peptides): Inactive

H-DTHFACIIF-NH2 [Compound 280]
EC50 [2]: > 1000 nM
EC50 [4]: > 1000 nM

H-DTHFPCIYFGPRSKGWVCK-NH2 (cysteine pairing not given here) [Compound 85]
EC50 [2]: 705 nM
